In patent publication US20100286219A1, “1, 3-Dihydroimidazoles for Treating Cardiovascular Disorders” (BIAL - PORTELA & CA S.A., priority 2007, published 2010):

B1: human DβH (Homo sapiens) (protein)
chain: MPALSRWASLPGPSMREAAFMYSTAVAIFLVILVAALQGSAPRESPLPYHIPLDPEGSLELSWNVSYTQEAIHFQLLVRRLKAGVLFGMSDRGELENADLVVLWTDGDTAYFADAWSDQKGQIHLDPQQDYQLLQVQRTPEGLTLLFKRPFGTCDPKDYLIEDGTVHLVYGILEEPFRSLEAINGSGLQMGLQRVQLLKPNIPEPELPSDACTMEVQAPNIQIPSQETTYWCYIKELPKGFSRHHIIKYEPIVTKGNEALVHHMEVFQCAPEMDSVPHFSGPCDSKMKPDRLNYCRHVLAAWALGAKAFYYPEEAGLAFGGPGSSRYLRLEVHYHNPLVIEGRNDSSGIRLYYTAKLRRFNAGIMELGLVYTPVMAIPPRETAFILTGYCTDKCTQLALPPSGIHIFASQLHTHLTGRKVVTVLVRDGREWEIVNQDNHYSPHFQEIRMLKKVVSVHPGDVLITSCTYNTEDRELATVGGFGILEEMCVNYVHYYPQTQLELCKSAVDAGFLQKYFHLINRFNNEDVCTCPQASVSQQFTSVPWNSFNRDVLKALYSFAPISMHCNKSSAVRFQGEWNLQPLPKVISTLEEPTPQCPTSQGRSPAGPTVVSIGGGKG

How the values were obtained:
[1] = biological target: T1, DβH (Mus musculus, UniProt Q64237); test: Noradrenaline tissue levels in mouse heart and brain after oral administration; assay type: in vivo
T1 construct: noradrenaline levels in the mouse left ventricle and brain parietal cortex 9 h after oral administration; from tissue; host or cells: mouse left ventricle and brain parietal cortex (in vivo)
T1 sequence (Q64237 1-622): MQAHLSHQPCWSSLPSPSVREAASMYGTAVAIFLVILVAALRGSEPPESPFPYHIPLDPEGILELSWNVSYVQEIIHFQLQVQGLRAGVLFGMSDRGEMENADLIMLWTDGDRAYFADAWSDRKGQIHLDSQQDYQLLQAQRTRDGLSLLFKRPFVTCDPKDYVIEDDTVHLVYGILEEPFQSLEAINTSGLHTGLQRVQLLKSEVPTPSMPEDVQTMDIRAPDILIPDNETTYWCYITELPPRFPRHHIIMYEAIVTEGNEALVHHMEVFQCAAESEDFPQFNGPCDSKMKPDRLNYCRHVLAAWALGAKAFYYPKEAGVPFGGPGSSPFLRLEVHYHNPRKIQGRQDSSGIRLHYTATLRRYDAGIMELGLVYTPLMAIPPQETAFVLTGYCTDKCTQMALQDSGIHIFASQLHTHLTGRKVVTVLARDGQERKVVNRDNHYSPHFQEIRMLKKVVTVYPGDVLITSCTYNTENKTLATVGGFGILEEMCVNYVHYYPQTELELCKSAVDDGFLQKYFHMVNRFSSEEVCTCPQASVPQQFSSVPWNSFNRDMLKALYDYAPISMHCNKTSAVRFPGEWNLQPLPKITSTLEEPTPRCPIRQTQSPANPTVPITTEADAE
Procedure: FIG. 1 is a graph showing the time-dependent decrease of noradrenaline levels in the left ventricle of mice treated orally with 100 mg/kg of 4 or nepicastat 1. Symbols are means of 5 determinations per group; vertical lines indicate S.E.M.
FIG. 2 is two graphs showing noradrenaline levels in the mouse left ventricle and brain parietal cortex 9 h after oral administration of 4 or nepicastat 1. Symbols are means of 5 determinations per group; vertical lines indicate S.E.M.
Time of maximum effect (Tmax) for noradrenaline tissue reduction by both 4 and 1 appears to be at 9 h post-dose (FIG. 1). Thereafter, noradrenaline tissue levels recover, reaching 50% recovery of initial tissue levels at 24 h.
For both 4 and 1, the maximal inhibitory effect was attained at a dose of 100 mg/kg.

[2] = biological target: T2, human DβH (Homo sapiens, UniProt P09172); test: DβH activity in SK-N-SH cells (β-hydroxylation of dopamine to noradrenaline); assay type: cell-based
T2 construct: endogenous in cells; host or cells: SK-N-SH cells
T2 sequence (P09172 1-617): B1 chain

[3] = biological target: T3, DβH (Rattus norvegicus, UniProt Q05754); test: Noradrenaline tissue levels in rat heart and brain after oral administration; assay type: in vivo
T3 construct: noradrenaline levels in the rat heart (left atrium and left ventricle) and brain (frontal and parietal cortex); from tissue; host or cells: rat heart (left atrium, left ventricle) and brain (frontal and parietal cortex), in vivo
T3 sequence (Q05754 1-620): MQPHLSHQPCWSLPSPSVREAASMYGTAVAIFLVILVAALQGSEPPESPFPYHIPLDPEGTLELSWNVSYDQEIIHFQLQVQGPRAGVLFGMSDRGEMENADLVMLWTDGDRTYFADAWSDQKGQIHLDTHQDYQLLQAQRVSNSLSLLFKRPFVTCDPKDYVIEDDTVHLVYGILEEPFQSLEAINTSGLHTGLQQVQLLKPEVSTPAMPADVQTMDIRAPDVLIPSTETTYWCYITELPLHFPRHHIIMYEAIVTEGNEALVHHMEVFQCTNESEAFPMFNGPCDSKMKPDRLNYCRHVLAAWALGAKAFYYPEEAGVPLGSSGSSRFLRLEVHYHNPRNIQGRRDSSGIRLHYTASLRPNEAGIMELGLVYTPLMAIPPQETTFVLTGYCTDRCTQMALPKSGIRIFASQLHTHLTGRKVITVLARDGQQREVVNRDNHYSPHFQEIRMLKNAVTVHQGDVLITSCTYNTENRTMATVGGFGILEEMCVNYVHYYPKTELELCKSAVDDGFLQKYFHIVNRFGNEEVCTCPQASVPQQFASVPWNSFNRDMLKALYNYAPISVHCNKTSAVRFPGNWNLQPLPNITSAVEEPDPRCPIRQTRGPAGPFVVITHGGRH
Procedure: FIG. 3 is four graphs showing noradrenaline levels in the rat heart (left atrium and left ventricle) and brain (frontal and parietal cortex) 9 h after the oral administration of 4 or nepicastat 1. Columns are means of 5 determinations per group; vertical lines indicated S.E.M.

[4] = substrate: NCCc1ccc(O)c(O)c1; test: cells, lysate or membranes; conditions: other: SK-N-SH cells, increasing concentrations of dopamine
[5] = mouse, 9 h after oral administration

Molecule	Time of maximum effect (Tmax) for noradrenaline tissue reduction ([1]; mouse heart (left ventricle), 100 mg/kg oral)	recovery of initial noradrenaline tissue levels ([1]; mouse heart, 100 mg/kg, at 24 h)	duration of action (in words) ([1]; mouse heart, time course at 100 mg/kg)	dose at which maximal inhibitory effect was attained ([1]; mouse left ventricle noradrenaline, 9 h after administration)	effect on noradrenaline levels in left ventricle [1, 5]	effect on noradrenaline tissue levels in brain parietal cortex [1, 5]	DβH activity, Mean ± SEM, % of control ([2]; compound 5 μM)	IC50 against human DβH activity (in words) ([2]; concentration-dependent decrease in β-hydroxylation of dopamine)	dose dependence of effect upon noradrenaline ([3]; rat (data not shown))	time of maximum effect upon noradrenaline ([3]; rat (data not shown))	effect on noradrenaline tissue levels in brain parietal cortex and brain frontal cortex ([3]; rat, 9 h after oral administration)	Km [4]	Vmax [4]
NCc1c[nH]c(=S)n1[C@H]1CCc2c(F)cc(F)cc2C1 [Nepicastat 1, nepicastat, reference compound]	9 h	50%	long acting	100 mg/kg	reduced noradrenaline levels in a dose-dependent manner	produced a dose-dependent decrease	0.0 ± 0.3 % of control	low nM range	dependent on the dose administered	9 h	produced a marked decrease		
B1												20.6 ± 1.6 µM	153.8±4.4 nmol mg protein-1 h-1
